Numbered stars: 1 amine (or outer) side, 2 acyl side, 3 side chain; on linkers, the order of the positions; unused ones are H or OH. Bridge positions count the residues as written; N and C are the ends. Square brackets hold non-standard residues; d marks the D form. Peptide text beside a SMILES is read from it. I, II: the chains in the order shown. Actinocin(1to9) = Cc1c2oc3c(C)ccc(C(=O)[*:2])c3nc-2c(C(=O)[*:1])c(N)c1=O; NMeV = CN[C@H](C(=O)O)C(C)C; Sar = CNCC(=O)O
Assays:
HeLa [1] = test: Cytotoxicity against human HeLa cells assessed as reduction in cell viability using compound addition to cell culture cells in lag phase of growth and incubated for 48 hrs by MTT assay; type: functional, cell-based; settings: Homo sapiens, HeLa, 48 h; read-out: IC50
Vero [2] = test: Cytotoxicity against African green monkey Vero cells assessed as reduction in cell viability using compound addition to cell culture cells in log phase of growth and incubated for 48 hrs by MTT assay; type: cell-based, Chlorocebus sabaeus; settings: Chlorocebus sabaeus, Vero, 48 h; read-out: IC50
Vero [3] = test: Cytotoxicity against African green monkey Vero cells assessed as reduction in cell viability using compound addition to cell culture cells in lag phase of growth and incubated for 48 hrs by MTT assay; type: cell-based, Chlorocebus sabaeus; settings: Chlorocebus sabaeus, Vero, 48 h; read-out: IC50
MCF7 [4] = test: Cytotoxicity against human MCF7 cells assessed as reduction in cell viability using compound addition to cell culture cells in log phase of growth and incubated for 48 hrs by MTT assay; type: functional, cell-based; settings: Homo sapiens, MCF7, 48 h; read-out: IC50
HeLa [5] = test: Cytotoxicity against human HeLa cells assessed as reduction in cell viability using compound addition to cell culture cells in log phase of growth and incubated for 48 hrs by MTT assay; type: functional, cell-based; settings: Homo sapiens, HeLa, 48 h; read-out: IC50
A549 [6] = test: Cytotoxicity against human A549 cells assessed as reduction in cell viability using compound addition to cell culture cells in lag phase of growth and incubated for 48 hrs by MTT assay; type: functional, cell-based; settings: Homo sapiens, A549, 48 h; read-out: IC50
A549 [7] = test: Cytotoxicity against human A549 cells assessed as reduction in cell viability using compound addition to cell culture cells in log phase of growth and incubated for 48 hrs by MTT assay; type: functional, cell-based; settings: Homo sapiens, A549, 48 h; read-out: IC50
MCF7 [8] = test: Cytotoxicity against human MCF7 cells assessed as reduction in cell viability using compound addition to cell culture cells in lag phase of growth and incubated for 48 hrs by MTT assay; type: functional, cell-based; settings: Homo sapiens, MCF7, 48 h; read-out: IC50

**Q.** What does the source list for `CC1=C(CO[Si](C)(C)C(C)(C)C)C(=O)O[C@@H]([C@@H](C)[C@H]2CC[C@H]3[C@@H]4C[C@H](Cl)[C@]5(O)[C@@H](O)C=CC(=O)[C@]5(C)[C@H]4CC[C@]23C)C1`?
**A.** IC50 (HeLa [1]): 3.1 µM; IC50 (Vero [2]): 3.1 µM; IC50 (Vero [3]): 3.5 µM; IC50 (MCF7 [4]): 3.1 µM; IC50 (HeLa [5]): 3.4 µM; IC50 (A549 [6]): 4.1 µM; IC50 (A549 [7]): 3.8 µM; IC50 (MCF7 [8]): 2.5 µM

**Q.** Which IC50 (HeLa [1]) does the source give for `C[C@@H]([C@H]1CC[C@H]2[C@@H]3C[C@H]4O[C@]45[C@@H](O)[C@H]4O[C@H]4C(=O)[C@]5(C)[C@H]3CC[C@]12C)[C@H]1C[C@@]2(C)O[C@@]2(CO)C(=O)O1` here?
**A.** The IC50 was > 40 µM.

**Q.** And the IC50 (Vero [2])?
**A.** Its IC50 is > 40 µM.

**Q.** What about the IC50 (Vero [3]) of the same compound?
**A.** The IC50 was > 40 µM.

**Q.** And the IC50 (MCF7 [4])?
**A.** The IC50 was > 40 µM.

**Q.** And the IC50 (HeLa [5])?
**A.** Its IC50 is > 40 µM.

**Q.** What about the IC50 (A549 [6]) of the same compound?
**A.** Its IC50 is > 40 µM.

**Q.** And the IC50 (A549 [7])?
**A.** The IC50 was > 40 µM.

**Q.** What about the IC50 (MCF7 [8]) of the same compound?
**A.** The IC50 was > 40 µM.

**Q.** Which results are given for `CCCCCCCC(=O)OCC1=C(C)C[C@H]([C@@H](C)[C@H]2CC[C@H]3[C@@H]4C[C@H](Cl)[C@]5(O)[C@@H](OC(=O)CCCCCCC)C=CC(=O)[C@]5(C)[C@H]4CC[C@]23C)OC1=O`?
**A.** IC50 (HeLa [1]): > 40 µM; IC50 (Vero [2]): > 40 µM; IC50 (Vero [3]): > 40 µM; IC50 (MCF7 [4]): > 40 µM; IC50 (HeLa [5]): > 40 µM; IC50 (A549 [6]): > 40 µM; IC50 (A549 [7]): > 40 µM; IC50 (MCF7 [8]): > 40 µM

**Q.** Which IC50 (HeLa [1]) does the source give for `CC1=C(CO)C(=O)O[C@@H]([C@@H](C)[C@H]2CC[C@H]3[C@@H]4C[C@@H]5ON[C@@H]6CC(=O)[C@](C)([C@H]4CC[C@]23C)[C@@]5(O)[C@H]6O)C1` here?
**A.** The IC50 was > 40 µM.

**Q.** What about the IC50 (Vero [2]) of the same compound?
**A.** Its IC50 is > 40 µM.

**Q.** What about the IC50 (Vero [3]) of the same compound?
**A.** Its IC50 is > 40 µM.

**Q.** What about the IC50 (MCF7 [4]) of the same compound?
**A.** The IC50 was > 40 µM.

**Q.** What about the IC50 (HeLa [5]) of the same compound?
**A.** Its IC50 is > 40 µM.

**Q.** What about the IC50 (A549 [6]) of the same compound?
**A.** The IC50 was > 40 µM.

**Q.** What about the IC50 (A549 [7]) of the same compound?
**A.** Its IC50 is > 40 µM.

**Q.** What about the IC50 (MCF7 [8]) of the same compound?
**A.** The IC50 was > 40 µM.

**Q.** How did the IC50 (HeLa [1]) turn out when `COc1ccc(C(=O)OCC2=C(C)C[C@H]([C@@H](C)[C@H]3CC[C@H]4[C@@H]5C[C@H](Cl)[C@]6(O)[C@@H](OC(=O)c7ccc(OC)cc7)C=CC(=O)[C@]6(C)[C@H]5CC[C@]34C)OC2=O)cc1` was run?
**A.** The IC50 was 11.2 µM.

**Q.** And the IC50 (Vero [2])?
**A.** Its IC50 is 3 µM.

**Q.** And the IC50 (Vero [3])?
**A.** The IC50 was 3.7 µM.

**Q.** And the IC50 (MCF7 [4])?
**A.** The IC50 was 4.5 µM.

**Q.** And the IC50 (HeLa [5])?
**A.** The IC50 was 28.1 µM.

**Q.** And the IC50 (A549 [6])?
**A.** The IC50 was 24 µM.

**Q.** And the IC50 (A549 [7])?
**A.** The IC50 was > 40 µM.

**Q.** And the IC50 (MCF7 [8])?
**A.** The IC50 was 3 µM.

**Q.** How did the IC50 (Vero [2]) turn out when `Sc1ncnc2nc[nH]c12` [MERCAPTOPURINE ANHYDROUS] was run?
**A.** Its IC50 is > 117 µM.

**Q.** For `CC1=C(CO)C(=O)O[C@@H]([C@@H](C)[C@H]2CC[C@H]3[C@@H]4C[C@H]5O[C@]56[C@@H](O)[C@@H](NCc5ccccc5)CC(=O)[C@]6(C)[C@H]4CC[C@]23C)C1`, which IC50 (HeLa [1]) is on record?
**A.** The IC50 was 8.5 µM.

**Q.** What about the IC50 (Vero [2]) of the same compound?
**A.** The IC50 was 7.8 µM.

**Q.** And the IC50 (Vero [3])?
**A.** The IC50 was 13.1 µM.

**Q.** What about the IC50 (MCF7 [4]) of the same compound?
**A.** Its IC50 is 6.6 µM.

**Q.** And the IC50 (HeLa [5])?
**A.** The IC50 was 11 µM.

**Q.** And the IC50 (A549 [6])?
**A.** Its IC50 is 10 µM.

**Q.** And the IC50 (A549 [7])?
**A.** Its IC50 is 13.8 µM.

**Q.** And the IC50 (MCF7 [8])?
**A.** The IC50 was 7.2 µM.

**Q.** `CC1=C(CO[Si](C)(C)C(C)(C)C)C(=O)O[C@@H]([C@@H](C)[C@H]2CC[C@H]3[C@@H]4C[C@H]5O[C@]56[C@@H](O)C=CC(=O)[C@]6(C)[C@H]4CC[C@]23C)C1` was tested. Which IC50 (Vero [2]) did it give?
**A.** Its IC50 is 0.8 µM.

**Q.** And the IC50 (MCF7 [4])?
**A.** The IC50 was 1.2 µM.

**Q.** What about the IC50 (HeLa [5]) of the same compound?
**A.** The IC50 was 3.1 µM.

**Q.** And the IC50 (A549 [7])?
**A.** The IC50 was 4 µM.

**Q.** `Cc1c2oc3c(C)ccc(C(=O)N[C@@H]4C(=O)N[C@H](C(C)C)C(=O)N5CCC[C@H]5C(=O)N(C)CC(=O)N(C)[C@@H](C(C)C)C(=O)O[C@@H]4C)c3nc-2c(C(=O)N[C@@H]2C(=O)N[C@H](C(C)C)C(=O)N3CCC[C@H]3C(=O)N(C)CC(=O)N(C)[C@@H](C(C)C)C(=O)O[C@@H]2C)c(N)c1=O` [DACTINOMYCIN] (I: T[dV]P[Sar][NMeV] / II: T[dV]P[Sar][NMeV]; ester I:1-I:C, II:1-II:C; linker I:N-II:N via Actinocin(1to9)) was tested. Which IC50 (Vero [2]) did it give?
**A.** The IC50 was 0.011 µM.

**Q.** And the IC50 (MCF7 [4])?
**A.** Its IC50 is 0.048 µM.

**Q.** What about the IC50 (HeLa [5]) of the same compound?
**A.** The IC50 was 0.0032 µM.

**Q.** And the IC50 (A549 [7])?
**A.** Its IC50 is 0.008 µM.

**Q.** `CC1=C(CO)C(=O)O[C@@H]([C@@H](C)[C@H]2CC[C@H]3[C@@H]4C[C@H]5O[C@]56[C@@H](O)CCC(=O)[C@]6(C)[C@H]4CC[C@]23C)C1` was tested. Which IC50 (Vero [2]) did it give?
**A.** Its IC50 is 24.2 µM.

**Q.** And the IC50 (MCF7 [4])?
**A.** Its IC50 is 12.2 µM.

**Q.** What about the IC50 (HeLa [5]) of the same compound?
**A.** The IC50 was 32.2 µM.

**Q.** And the IC50 (A549 [7])?
**A.** The IC50 was 19.7 µM.

**Q.** How did the IC50 (MCF7 [4]) turn out when `CC1=C(CO)C(=O)O[C@@H]([C@@H](C)[C@H]2CC[C@H]3[C@@H]4C[C@H](Cl)[C@]5(O)[C@@H](O)C=CC(=O)[C@]5(C)[C@H]4CC[C@]23C)C1` was run?
**A.** Its IC50 is 7.9 µM.

**Q.** And the IC50 (HeLa [5])?
**A.** Its IC50 is 17.5 µM.

**Q.** And the IC50 (A549 [7])?
**A.** Its IC50 is 16.1 µM.

**Q.** `CC(=O)OCC1=C(C)C[C@H]([C@@H](C)[C@H]2CC[C@H]3[C@@H]4C[C@H]5O[C@]56[C@@H](O)C=CC(=O)[C@]6(C)[C@H]4CC[C@]23C)OC1=O` was tested. Which IC50 (Vero [2]) did it give?
**A.** The IC50 was 5.9 µM.

**Q.** What about the IC50 (MCF7 [4]) of the same compound?
**A.** The IC50 was 4.6 µM.

**Q.** And the IC50 (HeLa [5])?
**A.** Its IC50 is 10.2 µM.
